According to the NIST ThermoML archive (doi:10.1016/j.fluid.2014.07.005):

Test: mn = molality of the nth substance listed, in mol/kg
Details: 298.15 K, 101 kPa, Liquid, Rudolph densimeter

[Cl-].[Cl-].[Mg+2] [magnesium chloride] + CO
Details | mass density [kg/m3]
m1 = 0.0105 | 788.19
m1 = 0.021 | 789.37
m1 = 0.0316 | 790.72
m1 = 0.0422 | 791.97
m1 = 0.0528 | 793.43
m1 = 0.0581 | 794.28
m1 = 0.0634 | 795.32
m1 = 0.0687 | 796.28
m1 = 0.074 | 796.94
m1 = 0.0794 | 797.82
m1 = 0.0847 | 798.59
m1 = 0.09 | 799.4
m1 = 0.0954 | 800.16

O=[N+]([O-])[O-].O=[N+]([O-])[O-].[Mg+2] [magnesium nitrate] + CO
Details | mass density [kg/m3]
m1 = 0.0067 | 787.75
m1 = 0.0135 | 788.44
m1 = 0.0203 | 789.09
m1 = 0.0271 | 789.77
m1 = 0.0339 | 790.43
m1 = 0.0373 | 790.75
m1 = 0.0407 | 791.07
m1 = 0.0441 | 791.39
m1 = 0.0475 | 791.72
m1 = 0.051 | 792.03
m1 = 0.0544 | 792.33
m1 = 0.0578 | 792.66
m1 = 0.0612 | 792.95
m1 = 0.0647 | 793.26
m1 = 0.0681 | 793.56

O=[N+]([O-])[O-].O=[N+]([O-])[O-].[Zn+2] [nitric acid, zinc salt] + CO
Details | mass density [kg/m3]
m1 = 0.0053 | 787.73
m1 = 0.0106 | 788.43
m1 = 0.0159 | 789.11
m1 = 0.0212 | 789.81
m1 = 0.0265 | 790.47
m1 = 0.0292 | 790.79
m1 = 0.0319 | 791.13
m1 = 0.0346 | 791.46
m1 = 0.0372 | 791.79
m1 = 0.0399 | 792.11
m1 = 0.0426 | 792.44
m1 = 0.0453 | 792.76
m1 = 0.048 | 793.07
m1 = 0.0507 | 793.39
m1 = 0.0533 | 793.72
m1 = 0.0804 | 796.87
